# Source: patent US20260159536A1, “AKR1C3-ACTIVATED DNA ALKYLATING AGENT, AND MEDICAL APPLICATION THEREOF” (ASCENTAWITS PHARMACEUTICALS, LTD., priority 2021, published 2026)
# Read-outs that look alike come from different tables or passages of the source.
# Columns and labels:
# H460 cancer cells = experiment: H460 proliferation in the presence or absence of AKR1C3 inhibitor AST-3021 (Alamar Blue); type: cell-based, human; settings: for IC50: Homo sapiens, NCI-H460, H460, 2 hours exposure
# Protocol: The tested compound was then added. The compound was dissolved in 100% DMSO at 200 times of the desired final test concentration. When the medicament was added, the compound was further diluted to 4 times of the desired final test concentration by using the complete medium. 50 μL of aliquots of the compound with specific concentration were added to the microwells containing 150 μL of medium, and then the final medicament concentration was obtained. […] The medicament was then washed. […] After the incubation was finished, the Alamar Blue was used to analyze and quantify the living cells.
# SNU886 = experiment: Cytotoxicity on hepatocellular carcinoma cell line SNU886; type: cell-based
# Protocol: (§1) If not otherwise specified, IC50 values were measured by the following experimental methods:
# (§2) a) Cells were plated for 24 hours, and then the compounds acted singly. 99 μL of growth medium was supplemented per well, and then 1 μL of 200× compound was added, gently shaken to ensure uniform mixing, and then placed in a 37° C., 5% CO2 incubator.
# (§3) b) The cell plate was placed in the incubator for 72 hours.
# (§4) b) 100 μL of CTG reagent (CelltiterGlo kit) was added to each well, the plate was placed in a rapid oscillator and shaken for 2 minutes, and then placed at room temperature for 30 minutes away from light.
# (§5) The IC50 was calculated using GraphPad Prism 8 software and the IC50 (half inhibitory concentration) of the compounds was obtained using the following non-linear fitting formula: […]
# (§6) Using the same experimental methods as described above, Compounds A, B and C were further tested for cytotoxicity against different hepatocellular carcinoma (HCC) cell lines SNU354, SNU886, MHCC97H and huH-1, and the results were shown in Table 2 below: […]
# huH-1 = experiment: Cytotoxicity on hepatocellular carcinoma cell line huH-1; type: cell-based
# Protocol: as §1, §2, §3, §4, §5, §6
# H460 cells = experiment: Inhibition of H460 cancer cell proliferation (CTG, 72 h); type: cell-based; settings: Homo sapiens, NCI-H460
# Protocol: as §1
# c) The cell suspension was added to 96-well plate with 100 μL per well and 2000 cells/well of cell density.
# as §2, §3, §4
# c) The chemiluminescence signal value was read with Envision instrument.
# as §5
# SNU354 = experiment: Cytotoxicity on hepatocellular carcinoma cell line SNU354; type: cell-based
# Protocol: as §1, §2, §3, §4, §5, §6
# MHCC97H = experiment: Cytotoxicity on hepatocellular carcinoma cell line MHCC97H; type: cell-based
# Protocol: as §1, §2, §3, §4, §5, §6
smiles,measurement,setting,value
O=[N+]([O-])c1ccc([C@@H](OP(=O)(N2CC2)N2CC2)C(F)(F)F)cc1Oc1ccc(-c2ccc(F)cc2)c(F)c1 [C],IC50,"H460 cancer cells; AST-3021 3 micromolar, read-out: IC50 With the addition of AST-3021",3330 nM
same,IC50,"H460 cancer cells; no AKR1C3 inhibitor, read-out: IC50 Without the addition of AST-3021",7.66 nM
same,Fold,H460 cancer cells; IC50 with AST-3021 over IC50 without,434.76
same,ratio C/B,SNU886; IC50 ratio,2.23
same,IC50,SNU886; SNU-886,843 nM
same,IC50,"huH-1; Homo sapiens, HuH-1",269 nM
same,ratio C/B,"huH-1; IC50 ratio, huH-1",1.49
same,IC50,H460 cells,23.4 nM
same,IC50,"SNU354; Homo sapiens, SNU-354",1520 nM
same,ratio C/B,SNU354; IC50 ratio,2.01
same,IC50,MHCC97H; Homo sapiens,563 nM
same,ratio C/B,MHCC97H; IC50 ratio,2.32
